Experiments:
His-BIR3 (241-356, XIAP) = target: T1, His-BIR3 (241-356, XIAP) (Homo sapiens, UniProt P98170); experiment: XIAP-BIR3/SMAC Homogeneous Time Resolved Fluorescence (HTRF) Assay; format: binding; conditions: Table 4
T1 construct: additions of His-BIR3 (241-356, XIAP), fluorescein labeled SMAC peptide

[1] = target: T2, His-BIR2-3 (125-356, C202A/C213G, XIAP) (Homo sapiens, UniProt P98170, C202A/C213G); experiment: XIAP-BIR2-3 Dimeric SMAC Peptide Homogeneous Time Resolved Fluorescence (HTRF) Assay; format: binding; conditions: XIAP BIR2-3, HTRF, Table 4
T2 construct: additions of His-BIR2-3 (125-356, C202A/C213G, XIAP), fluorescein labeled dimeric SMAC peptide
T2 sequence (P98170 125-356 C202A/C213G): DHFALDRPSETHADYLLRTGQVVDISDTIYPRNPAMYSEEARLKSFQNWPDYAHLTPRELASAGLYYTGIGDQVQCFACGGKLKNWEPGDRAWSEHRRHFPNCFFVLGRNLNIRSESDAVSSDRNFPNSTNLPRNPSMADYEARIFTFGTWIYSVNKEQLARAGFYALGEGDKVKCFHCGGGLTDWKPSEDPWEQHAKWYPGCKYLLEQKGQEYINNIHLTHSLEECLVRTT

T1 sequence (P98170 241-356): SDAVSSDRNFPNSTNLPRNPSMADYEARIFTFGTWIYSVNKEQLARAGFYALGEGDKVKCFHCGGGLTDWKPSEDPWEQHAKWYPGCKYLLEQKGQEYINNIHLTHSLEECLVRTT

Row | Structure (SMILES) | IC50 (His-BIR3 (241-356, XIAP)) | IC50 [1]
1 | CN[C@@H](C)C(=O)N[C@H](C(=O)N1C[C@@H]2C[C@H]1C(=O)N[C@@H](Cc1ccc3ccccc3c1)C(=O)N[C@H](C(=O)O)Cc1ccc(cc1)OCc1cn(nn1)[C@H]1C[C@@H](C(=O)N[C@@H](Cc3ccc4ccccc4c3)C(=O)N[C@H](C(=O)N(C)CCC(=O)O)Cc3ccc(cc3)OCc3cn2nn3)N(C(=O)[C@@H](NC(=O)[C@H](C)NC)C(C)(C)C)C1)C(C)(C)C [Compound 1028] | < 10 nM | ≤ 1 nM
2 | CN[C@@H](C)C(=O)N[C@H](C(=O)N1C[C@@H]2C[C@H]1C(=O)N[C@@H](Cc1ccc3ccccc3c1)C(=O)N[C@H](C(=O)O)Cc1ccc(cc1)OCc1cn(nn1)[C@H]1C[C@@H](C(=O)N[C@@H](Cc3ccc4ccccc4c3)C(=O)N[C@H](C(=O)OC)Cc3ccc(cc3)OCc3cn2nn3)N(C(=O)[C@@H](NC(=O)[C@H](C)NC)C(C)(C)C)C1)C(C)(C)C [Compound 1001] | > 100 nM | > 10 nM
3 | CN[C@@H](C)C(=O)N[C@H](C(=O)N1C[C@@H]2C[C@H]1C(=O)N[C@@H](Cc1ccc3ccccc3c1)C(=O)N[C@H](C(=O)O)Cc1ccc(cc1)OCc1cn(nn1)[C@H]1C[C@@H](C(=O)N[C@@H](Cc3ccc4ccccc4c3)C(=O)N[C@H](C(=O)N[C@@H](CCCCN)C(=O)N[C@@H](CO)C(=O)O)Cc3ccc(cc3)OCc3cn2nn3)N(C(=O)[C@@H](NC(=O)[C@H](C)NC)C(C)(C)C)C1)C(C)(C)C [Compound 1034] | 10 to 100 nM | > 10 nM
4 | CN[C@@H](C)C(=O)N[C@H](C(=O)N1C[C@@H]2C[C@H]1C(=O)N[C@@H](Cc1ccc3ccccc3c1)C(=O)N[C@H](C(=O)O)Cc1ccc(cc1)NC(=O)c1cn(nn1)[C@H]1C[C@@H](C(=O)N[C@@H](Cc3ccc4ccccc4c3)C(=O)N[C@H](C(=O)O)Cc3ccc(cc3)OCc3cn2nn3)N(C(=O)[C@@H](NC(=O)[C@H](C)NC)C(C)(C)C)C1)C(C)(C)C [Compound 1014] | < 10 nM | ≤ 1 nM
5 | CN[C@@H](C)C(=O)N[C@H](C(=O)N1C[C@@H]2C[C@H]1C(=O)N[C@@H](Cc1ccc3ccccc3c1)C(=O)N[C@H](C(=O)O)Cc1ccc(cc1)OCc1cn(nn1)[C@H]1C[C@@H](C(=O)N[C@@H](Cc3ccc4ccccc4c3)C(=O)N[C@H](C(=O)N(C)CC(=O)O)Cc3ccc(cc3)OCc3cn2nn3)N(C(=O)[C@@H](NC(=O)[C@H](C)NC)C(C)(C)C)C1)C(C)(C)C [Compound 1020] | 10 to 100 nM | 1 to 10 nM
6 | CN[C@@H](C)C(=O)N[C@H](C(=O)N1C[C@@H]2C[C@H]1C(=O)N[C@@H](Cc1ccc3ccccc3c1)C(=O)N[C@H](C(=O)O)Cc1ccc(cc1)OCc1cn(nn1)[C@H]1C[C@@H](C(=O)N[C@@H](Cc3ccc4ccccc4c3)C(=O)N[C@H](C(=O)NC(CO)CO)Cc3ccc(cc3)OCc3cn2nn3)N(C(=O)[C@@H](NC(=O)[C@H](C)NC)C(C)(C)C)C1)C(C)(C)C [Compound 1042] | 10 to 100 nM | 1 to 10 nM
7 | CN[C@@H](C)C(=O)N[C@H](C(=O)N1C[C@@H]2C[C@H]1C(=O)N[C@@H](Cc1ccc3ccccc3c1)C(=O)N[C@H](C(=O)O)Cc1ccc(cc1)OCc1cn(nn1)[C@H]1C[C@@H](C(=O)N[C@@H](Cc3ccc4ccccc4c3)C(=O)N[C@H](C(=O)NCC(=O)O)Cc3ccc(cc3)OCc3cn2nn3)N(C(=O)[C@@H](NC(=O)[C@H](C)NC)C(C)(C)C)C1)C(C)(C)C [Compound 1018] | < 10 nM | 1 to 10 nM
8 | CN[C@@H](C)C(=O)N[C@H](C(=O)N1C[C@@H]2C[C@H]1C(=O)N[C@@H](Cc1ccc3ccccc3c1)C(=O)N[C@H](C(=O)O)Cc1ccc(cc1)OCc1cn(nn1)[C@H]1C[C@@H](C(=O)N[C@@H](Cc3ccc4ccccc4c3)C(=O)N[C@H](C(=O)NCc3cc(F)c(O)c(F)c3)Cc3ccc(cc3)OCc3cn2nn3)N(C(=O)[C@@H](NC(=O)[C@H](C)NC)C(C)(C)C)C1)C(C)(C)C [Compound 1041] | 10 to 100 nM | 1 to 10 nM
9 | CN[C@@H](C)C(=O)NC(C(=O)N1C[C@@H]2C[C@H]1C(=O)N[C@@H](Cc1ccc3ccccc3c1)C(=O)N[C@H](c1nc(=O)o[nH]1)Cc1ccc(cc1)OCc1cn(nn1)[C@H]1C[C@@H](C(=O)N[C@@H](Cc3ccc4ccccc4c3)C(=O)N[C@H](C(=O)O)Cc3ccc(cc3)OCc3cn2nn3)N(C(=O)[C@@H](NC(=O)[C@H](C)NC)C(C)(C)C)C1)C(C)(C)C (stereo partly drawn) [Compound 1047] | < 10 nM | ≤ 1 nM
10 | CN[C@@H](C)C(=O)N[C@H](C(=O)N1C[C@@H]2C[C@H]1C(=O)N[C@@H](Cc1ccc3ccccc3c1)C(=O)N[C@H](C(=O)O)Cc1ccc(cc1)OCc1cn(nn1)[C@H]1C[C@@H](C(=O)N[C@@H](Cc3ccc4ccccc4c3)C(=O)N[C@H](C(=O)NS(=O)(=O)CC3CC3)Cc3ccc(cc3)OCc3cn2nn3)N(C(=O)[C@@H](NC(=O)[C@H](C)NC)C(C)(C)C)C1)C(C)(C)C [Compound 1037] | 10 to 100 nM | 1 to 10 nM
11 | CN[C@@H](C)C(=O)N[C@H](C(=O)N1C[C@@H]2C[C@H]1C(=O)N[C@@H](Cc1ccc3ccccc3c1)C(=O)N[C@H](C(=O)O)Cc1ccc(cc1)OCc1cn(nn1)[C@H]1C[C@@H](C(=O)N[C@@H](Cc3ccc4ccccc4c3)C(=O)N[C@H](C(=O)N3CCC(C(=O)O)CC3)Cc3ccc(cc3)OCc3cn2nn3)N(C(=O)[C@@H](NC(=O)[C@H](C)NC)C(C)(C)C)C1)C(C)(C)C [Compound 1027] | 10 to 100 nM | 1 to 10 nM
12 | CN[C@@H](C)C(=O)N[C@H](C(=O)N1C[C@@H]2C[C@H]1C(=O)N[C@@H](Cc1ccc3ccccc3c1)C(=O)N[C@H](C(=O)O)Cc1ccc(cc1)OCc1cn(nn1)[C@H]1C[C@@H](C(=O)N[C@@H](Cc3ccc4ccccc4c3)C(=O)N[C@H](c3nnn[nH]3)Cc3ccc(cc3)OCc3cn2nn3)N(C(=O)[C@@H](NC(=O)[C@H](C)NC)C(C)(C)C)C1)C(C)(C)C [Compound 1048] | < 10 nM | ≤ 1 nM
13 | CN[C@@H](C)C(=O)N[C@H](C(=O)N1C[C@@H]2C[C@H]1C(=O)N[C@@H](Cc1ccc3ccccc3c1)C(=O)N[C@H](C(=O)O)Cc1ccc(cc1)OCCCc1cn(nn1)[C@H]1C[C@@H](C(=O)N[C@@H](Cc3ccc4ccccc4c3)C(=O)N[C@H](C(=O)O)Cc3ccc(cc3)OCCCc3cn2nn3)N(C(=O)[C@@H](NC(=O)[C@H](C)NC)C(C)(C)C)C1)C(C)(C)C [Compound 1011] | < 10 nM | 1 to 10 nM
14 | CN[C@@H](C)C(=O)N[C@H](C(=O)N1CCN2CCn3cc(nn3)C[C@@H](C(=O)O)NC(=O)[C@H](Cc3ccc4ccccc4c3)NC(=O)[C@@H]3CN(CCN3C(=O)[C@@H](NC(=O)[C@H](C)NC)C(C)(C)C)CCn3cc(nn3)C[C@@H](C(=O)O)NC(=O)[C@H](Cc3ccc4ccccc4c3)NC(=O)[C@@H]1C2)C(C)(C)C [Compound 1050] | – | > 10 nM
15 | CN[C@@H](C)C(=O)N[C@H](C(=O)N1C[C@@H]2C[C@H]1C(=O)N[C@@H](Cc1ccc3ccccc3c1)C(=O)N[C@H](C(=O)O)Cc1ccc(cc1)OCc1cn(nn1)[C@H]1C[C@@H](C(=O)N[C@@H](Cc3ccc4ccccc4c3)C(=O)N[C@H](C(=O)N3CC(C(=O)O)C3)Cc3ccc(cc3)OCc3cn2nn3)N(C(=O)[C@@H](NC(=O)[C@H](C)NC)C(C)(C)C)C1)C(C)(C)C [Compound 1026] | 10 to 100 nM | 1 to 10 nM
16 | CN[C@@H](C)C(=O)N[C@H](C(=O)N1C[C@@H]2C[C@H]1C(=O)N[C@@H](Cc1ccc3ccccc3c1)C(=O)N[C@H](C(=O)O)Cc1ccc(cc1)OCc1cn(nn1)[C@H]1C[C@@H](C(=O)N[C@@H](Cc3ccc4ccccc4c3)C(=O)N[C@H](C(=O)O)Cc3ccc(cc3)NC(=O)CCc3cn2nn3)N(C(=O)[C@@H](NC(=O)[C@H](C)NC)C(C)(C)C)C1)C(C)(C)C [Compound 1016] | < 10 nM | ≤ 1 nM
17 | CN[C@@H](C)C(=O)N[C@H](C(=O)N1C[C@@H]2C[C@H]1C(=O)N[C@@H](Cc1ccc3ccccc3c1)C(=O)N[C@H](C(=O)O)Cc1ccc(cc1)OCc1cn(nn1)[C@H]1C[C@@H](C(=O)N[C@@H](Cc3ccc4ccccc4c3)C(=O)N[C@H](C(=O)NCc3nnn[nH]3)Cc3ccc(cc3)OCc3cn2nn3)N(C(=O)[C@@H](NC(=O)[C@H](C)NC)C(C)(C)C)C1)C(C)(C)C [Compound 1022] | < 10 nM | 1 to 10 nM
18 | CN[C@@H](C)C(=O)N[C@H](C(=O)N1CCN2C[C@H]1C(=O)N[C@@H](Cc1ccc3ccccc3c1)C(=O)N[C@H](C(=O)O)Cc1cn(nn1)CC(=O)N1CCN(C(=O)[C@@H](NC(=O)[C@H](C)NC)C(C)(C)C)[C@@H](C1)C(=O)N[C@@H](Cc1ccc3ccccc3c1)C(=O)N[C@H](C(=O)O)Cc1cn(nn1)CC2=O)C(C)(C)C [Compound 1051] | > 100 nM | > 10 nM
19 | CN[C@@H](C)C(=O)N[C@H](C(=O)N1C[C@@H]2C[C@H]1C(=O)N[C@@H](Cc1ccc3ccccc3c1)C(=O)N[C@H](C(=O)O)Cc1ccc(cc1)OCc1cn(nn1)[C@H]1C[C@@H](C(=O)N[C@@H](Cc3ccc4ccccc4c3)C(=O)N[C@H](C(=O)N[C@@H](C)C(=O)O)Cc3ccc(cc3)OCc3cn2nn3)N(C(=O)[C@@H](NC(=O)[C@H](C)NC)C(C)(C)C)C1)C(C)(C)C [Compound 1033] | < 10 nM | 1 to 10 nM
20 | CN[C@@H](C)C(=O)N[C@H](C(=O)N1C[C@@H]2C[C@H]1C(=O)N[C@@H](Cc1ccc3ccccc3c1)C(=O)N[C@H](C(=O)O)Cc1ccc(cc1)OCc1cn(nn1)[C@H]1C[C@@H](C(=O)N[C@@H](Cc3ccc4ccccc4c3)C(=O)N[C@H](C(=O)NS(=O)(=O)CCCC(=O)O)Cc3ccc(cc3)OCc3cn2nn3)N(C(=O)[C@@H](NC(=O)[C@H](C)NC)C(C)(C)C)C1)C(C)(C)C [Compound 1045] | < 10 nM | ≤ 1 nM
